Experimental data reported in patent publication US5393748A, “Methylenebisphosphonic acid derivatives” (priority 1990, dated 1995).

What was measured:
[1] = tested on: retinoid induced bone resorption in thyroparathyroidectomised rats; assay: Inhibition of retinoid induced bone resorption in thyroparathyroidectomised rats in vivo; parameters: species or system rat; details: 150 μmole/kg
Procedure: (§1) The parathyroid hormone stimulated bone resorption inhibition activity of the compounds in vitro in mouse calvaria, as well as the inhibition of retinoid induced bone resorption in thyroparathyroidectomised rats in vivo were determined (Reynolds & Dingle (Calc Tiss Res 1970; 4:339, and Trechsel et al. (J Clin Invest 1987; 80:1679)).

[2] = tested on: parathyroid hormone stimulated bone resorption in mouse calvaria; assay: Parathyroid hormone stimulated bone resorption inhibition in vitro in mouse calvaria; assay type: cell-based; details: 100 μm
Procedure: as §1

Compound	Inhibition of resorption (%), in vivo [1] [%]	Inhibition of resorption (%), in vitro [2] [%]
O=P(O)(O)C(Cl)(Cl)P(=O)(O)O [Clodronate, reference compound]	64	
CCOP(=O)(O)C(Nc1ccccn1)P(=O)(O)OCC (stereo not shown) [[[(2-Pyridinyl)amino]methylidene]bisphosphonic acid P,P'-diethyl ester]	65	33
CC(C)OP(=O)(O)C(Sc1ccccn1)P(=O)(O)O (stereo not shown) [[[(2-Pyridinyl)thio]methylidene]bisphosphonic Acid Monoisopropyl Ester]	87	50
O=P(O)(O)C(Nc1ccccn1)P(=O)(O)O [[[(2-pyridinyl)amino]methylidene]bisphosphonate, reference compound]	> 100	56
CCOP(=O)(O)C(Nc1ncccc1C)P(=O)(O)OCC (stereo not shown) [[[(3-Methyl-2-pyridinyl)amino]methylidene) Bisphosphonic Acid P,P'-diethyl Ester]	66	43
Cc1cccnc1NC(P(=O)(O)O)P(=O)(O)O [[[(3-methyl 2-pyridinyl)amino]methylidene]bisphosphonate, reference compound]		51
